Patent US20250034159A1, “INHIBITORS OF EPIDERMAL GROWTH FACTOR RECEPTOR” (ORIC Pharmaceuticals, Inc., priority 2021, published 2025)

Key:
[1] = molecular target: recombinant human EGFR exon 19 deletion/C797S double mutant protein (Homo sapiens (Human), UniProt P00533, C797S/DEL746-750); assay: Biological Activity Assay C: biochemical assay against EGFR exon 19 deletion/C797S protein (EGFR d19/CS)
Protocol: In Row A of a 384-well polypropylene plate, was added 48 μL of DMSO. In wells A1 and A24, were added 12 μL of DMSO. […] To a well in Row A were added 12 μL of each 10 mM test compound stock (100% DMSO). […] The final intermediate dilution plate contained 4×16-point compound serial dilutions in assay buffer. The DMSO concentration was 10%. The intermediate compound dilution plate was transferred to the Bravo and the “5 uL dispense into ARP.pro” protocol was run. To the black low volume assay ready plates, were added 5 μL of 40 uM Phosphosens peptide sensor/4 mM ATP working solution to each well. […] To column 24, was added 10 μL of assay buffer. The final DMSO concentration was 2.5%. […] The plates were sealed with the TopSeal-A Plus plate seals. […] Set for 90 cycles with 120 second interval. […] The slope of each curve was constructed using Dotmatics in each well, and each IC50s was calculated using a 4-parameter fit model.

Ba/F3_EGFR WT cells = assay: Biological Activity Assay D: BaF3 cell proliferation assay, EGFR wild-type (BaF3 WT); type: cell-based; conditions: Ba/F3 EGFR; Ba/F3_EGFR WT cells, ~72 hours, CellTiter-Glo; read-out: BaF3 WT IC50
Protocol: (§1) One frozen vial of cells should be thawed into one T25 flask in 10 mL media. Keep the flask upright in the incubator.
(§2) Method: One frozen vial of cells was thawed into one T25 flask in 10 mL media and the flask was kept upright in the incubator. Cells were split 1:10 every two to three days when cells reached confluency of around 1×10^6 cells/mL. Bravo protocol files were used with Greiner 384-well plates for all steps of compound preparation, cell plating and compound addition. […] 16 μL of DMSO were added (for compounds starting at 20 μM) or 28 μL DMSO (for compounds starting at 5 μM) to 96-well V-bottom polypropylene plate: wells 1A-1H (8 compounds/plate). […] 20 μL DMSO were added to the remainder of the wells (columns 2-12) in the 96-well V-bottom plate. A Bravo liquid handler was used to make 1:3 serial dilutions from columns 1 to 11 (12 remains as DMSO only) to prepare the DMSO dilution plate. 144 μL media were added to each well of a new 96-well V-bottom polypropylene plate to prepare the intermediate dilution plate. A Bravo or 96-head Integra liquid handler was used to add and mix 6 μL of test compound from the DMSO dilution plate to the intermediate dilution plate. (1:25 dilution). Cells were transferred from a flask into a 50 mL conical, vortex gently and the number of cells were counted, with a target cell number of about 1×10^6 cells per mL. The cells were diluted in culture medium in 50 mL conical or T25 flask, and the cell suspension was added to BRAVO reservoir and then use Bravo protocol to plate the appropriate number of cells shown below in 36 μl of medium per well as follows: Ba/F3-WT-EGFR 2000 cells per well of a 384 well plate; Ba/F3-LR/CS-EGFR 2000 cells per well of a 384 well plate; and Ba/F3-d19/CS-EGFR 1500 cells per well of a 384 well plate. An extra 10 mL of dead volume was utilized in each reservoir.
(§3) Using a Bravo liquid handler, 4 μl of test compound solution was added per well from the intermediate dilution plate to plated cells (1:10 dilution from the intermediate plate, final compound dilution 1:250 and final DMSO concentration per well is 0.4%). Using the 96 BRAVO Head, 25 μl were aspirated from the intermediate dilution plate and 4 μl each were dispensed into 4 wells (square pattern) in the 384-well plate. Any remaining test compound is dispensed into a secondary plate to prevent cross contamination of cells in the intermediate compound plate. After the compounds were added, the plate was shaken at 600 rpm gently for 60 see, and the plates were incubated in a tissue culture incubator, 37° C., 5% CO2, for ˜ 72 hours. After incubation, CTG 2.0 reagent was allowed to equilibrate to room temperature (˜3 hours) and cells to reach room temperature (˜10-15 minutes) and reagent was added to cells (40 μL/well) using a Bravo liquid handler. The plates were shaken to allow proper mixing (˜5 min) and let settle for 10 minutes and were read on Tecan plate reader using the appropriate luminescence method. Data from plate reader was transferred to an excel file and entered directly into Dotmatics using the protocols under EGFR Project/Cell Proliferation/named: “BaF3_EGFRwt_CP”, “BaF3_EGFR_d19/CS_CP”, “BaF3_EGFR_LR/CS_CP”. Curves were fit with a 4-parameter model and IC50s calculated by the Dotmatics software. DMSO wells were averaged to define the high control (100% growth). The average of the highest concentration of the positive control compound (afatinib) was used to define the 0% growth and used to lock the bottom of the curves. The tops of the curves were not fixed.

BaF3_EGFR LR/CS cells = assay: Biological Activity Assay D: BaF3 cell proliferation assay, EGFR L858R/C797S mutant (BaF3 LR/CS); type: cell-based; conditions: Ba/F3 EGFR; BaF3_EGFR LR/CS cells, ~72 hours, CellTiter-Glo; read-out: BaF3 LR/CS IC50
Protocol: as §1, §2, §3

BaF3_EGFR d19/CS cells = assay: Biological Activity Assay D: BaF3 cell proliferation assay, EGFR exon 19 deletion/C797S (BaF3 d19/CS); type: cell-based; conditions: Ba/F3 EGFR; BaF3_EGFR d19/CS cells, ~72 hours, CellTiter-Glo; read-out: BaF3 d19/CS IC50
Protocol: as §1, §2, §3

Sequence of recombinant human EGFR exon 19 deletion/C797S double mutant protein (P00533 other isoform, or with tags, fused parts or gaps C797S/del 1-668/del 746-750 limits assumed): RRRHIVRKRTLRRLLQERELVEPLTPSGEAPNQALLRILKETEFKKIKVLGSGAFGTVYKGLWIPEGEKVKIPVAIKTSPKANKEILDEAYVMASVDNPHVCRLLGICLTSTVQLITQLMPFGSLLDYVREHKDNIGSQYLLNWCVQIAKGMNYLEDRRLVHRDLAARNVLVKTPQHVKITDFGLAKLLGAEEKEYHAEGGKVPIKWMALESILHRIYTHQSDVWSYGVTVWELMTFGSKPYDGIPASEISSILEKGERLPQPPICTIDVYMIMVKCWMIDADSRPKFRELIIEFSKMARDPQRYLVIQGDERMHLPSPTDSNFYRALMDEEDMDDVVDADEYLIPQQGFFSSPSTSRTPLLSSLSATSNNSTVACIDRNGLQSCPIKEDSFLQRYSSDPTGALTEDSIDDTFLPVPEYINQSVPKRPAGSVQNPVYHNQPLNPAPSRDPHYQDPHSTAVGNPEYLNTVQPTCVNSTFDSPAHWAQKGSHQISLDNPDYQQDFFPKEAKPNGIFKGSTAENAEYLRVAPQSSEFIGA

| Compound | IC50 [1] | IC50 (Ba/F3_EGFR WT cells) | IC50 (BaF3_EGFR LR/CS cells) | IC50 (BaF3_EGFR d19/CS cells) |
| --- | --- | --- | --- | --- |
| Fc1ccc(-c2nn([C@H]3CCCOC3)cc2-c2ncnc3oc(-c4ccccc4)cc23)cc1 (single isomer, unassigned) [Example 137] | 0.69 nM | 2500 nM | 40.5 nM | 71.3 nM |
| Fc1ccc(-c2nn([C@H]3CCOC[C@@H]3F)cc2-c2ncnc3oc(-c4ccccc4)cc23)cc1 (single isomer, unassigned) [Example 152] | 1.33 nM | 2020 nM | 22.5 nM | 88.9 nM |
| Fc1ccc(-c2nn([C@@H]3CCOC[C@H]3F)cc2-c2ncnc3oc(-c4ccccc4)cc23)cc1 (single isomer, unassigned) [Example 153] | 1.04 nM | 1800 nM | 22.3 nM | 60.4 nM |
| CN1CC[C@@H](n2cc(-c3ncnc4oc(-c5ccccc5)cc34)c(-c3ccc(F)cc3)n2)C1=O (single isomer, unassigned) [Example 166] | 0.29 nM | 1350 nM | 19.6 nM | 53.8 nM |
| CN1CC[C@H](n2cc(-c3ncnc4oc(-c5ccccc5)cc34)c(-c3ccc(F)cc3)n2)C1=O (single isomer, unassigned) [Example 167] | 0.83 nM | 1640 nM | 32.8 nM | 162 nM |
| CS(=O)(=O)[C@@H]1CC[C@H](n2cc(-c3ncnc4oc(-c5ccccc5)cc34)c(-c3ccc(F)cc3)n2)C1 (single isomer, unassigned) [Example 192] | 0.97 nM | 3070 nM | 196 nM | 260 nM |
| CS(=O)(=O)[C@H]1CC[C@@H](n2cc(-c3ncnc4oc(-c5ccccc5)cc34)c(-c3ccc(F)cc3)n2)C1 (single isomer, unassigned) [Example 193] | 1.64 nM | 3040 nM | 174 nM | 259 nM |
| Fc1ccc(-c2nn([C@H]3CCOC[C@H]3F)cc2-c2ncnc3oc(-c4ccccc4)cc23)cc1 (single isomer, unassigned) [Example 210] | 0.5 nM | 1690 nM | 61.1 nM | 92.2 nM |
| Fc1ccc(-c2nn([C@@H]3CCOC[C@@H]3F)cc2-c2ncnc3oc(-c4ccccc4)cc23)cc1 (single isomer, unassigned) [Example 211] | 0.35 nM | 886 nM | 18.3 nM | 20.1 nM |
| C[C@@H]1OCC[C@H]1n1cc(-c2ncnc3oc(-c4ccccc4)cc23)c(-c2ccc(F)cc2)n1 (single isomer, unassigned) [Example 213] | 0.51 nM | 2610 nM | 80.9 nM | 168 nM |
| C[C@H]1OCC[C@@H]1n1cc(-c2ncnc3oc(-c4ccccc4)cc23)c(-c2ccc(F)cc2)n1 (single isomer, unassigned) [Example 214] | 0.88 nM | 2510 nM | 136 nM | 303 nM |
| CC1(C)C[C@H](Cn2cc(-c3ncnc4oc(-c5ccccc5)cc34)c(-c3ccc(F)cc3)n2)O1 (single isomer, unassigned) [Example 221] | 0.33 nM | 710 nM | 20.7 nM | 51.8 nM |
| CC1(C)C[C@@H](Cn2cc(-c3ncnc4oc(-c5ccccc5)cc34)c(-c3ccc(F)cc3)n2)O1 (single isomer, unassigned) [Example 222] | 0.59 nM | 1250 nM | 76.8 nM | 182 nM |
| CC1(C)C[C@H](n2cc(-c3ncnc4oc(-c5ccccc5)cc34)c(-c3ccc(F)cc3)n2)CCO1 (single isomer, unassigned) [Example 225] | 4.88 nM | 18900 nM | 502 nM | 886 nM |
| CC1(C)C[C@@H](n2cc(-c3ncnc4oc(-c5ccccc5)cc34)c(-c3ccc(F)cc3)n2)CCO1 (single isomer, unassigned) [Example 226] | 1.86 nM | 10200 nM | 236 nM | 413 nM |
| Fc1ccc(-c2nn([C@@H]3CCCCC3(F)F)cc2-c2ncnc3oc(-c4ccccc4)cc23)cc1 (single isomer, unassigned) [Example 230] | 5.1 nM | 2370 nM | 88.5 nM | 287 nM |
| Fc1ccc(-c2nn([C@H]3CCCCC3(F)F)cc2-c2ncnc3oc(-c4ccccc4)cc23)cc1 (single isomer, unassigned) [Example 233] | 4.09 nM | 6040 nM | 228 nM | 414 nM |
| CC1(C)C[C@@H](n2cc(-c3ncnc4oc(-c5ccccc5)cc34)c(-c3ccc(F)cc3)n2)CO1 (single isomer, unassigned) [Example 237] | 0.74 nM | 2500 nM | 35 nM | 73.9 nM |
| CC1(C)C[C@H](n2cc(-c3ncnc4oc(-c5ccccc5)cc34)c(-c3ccc(F)cc3)n2)CO1 (single isomer, unassigned) [Example 238] | 0.62 nM | 2070 nM | 31 nM | 52.1 nM |
| N=[S@]1(=O)CC[C@H](n2cc(-c3ncnc4oc(-c5ccccc5)cc34)c(-c3ccc(F)cc3)n2)C1 (single isomer, unassigned) [Example 246] | 0.06 nM | 876 nM | 10.6 nM | 26.9 nM |
| N=[S@@]1(=O)CC[C@@H](n2cc(-c3ncnc4oc(-c5ccccc5)cc34)c(-c3ccc(F)cc3)n2)C1 (single isomer, unassigned) [Example 247] | 0.09 nM | 1360 nM | 8.8 nM | 26.9 nM |
| Cn1cnc(-c2cc3c(-c4cn(C5CC5(F)F)nc4-c4ccc(F)cc4)ncnc3o2)c1 (single isomer, unassigned) [Example 273] | 0.291 nM | 834 nM | 22.9 nM | 24.8 nM |
| Cn1cnc(-c2cc3c(-c4cn([C@H]5CC5(F)F)nc4-c4ccc(F)cc4)ncnc3o2)c1 (single isomer, unassigned) [Example 274] | 0.213 nM | 721 nM | 16.1 nM | 23.5 nM |
| O[C@H]1C[C@@H](n2cc(-c3ncnc4oc(-c5ccccc5)cc34)c(-c3ccc(F)cc3)n2)C1 [Example 120, (1s,3s)-3-(3-(4-Fluorophenyl)-4-(6-phenylfuro[2,3-d]pyrimidin-4-yl)-1H-pyrazol-1-yl)cyclobutan-1-ol] | 0.12 nM | 633 nM | 8.82 nM | 17.1 nM |
